Results as given in PubChem BioAssay AID2060601 (Molecular Pharmacology Branch, DTP, NCI, 2025).
Where “and” joins values, the source holds several entries; their conditions need not be identical. Equal values may be shown once.

System: 874868-142-R-J2-PDC complex spheroids, growth % test/control
Test: Anticancer human tumor 874868-142-R-J2-PDC patient-derived head and neck squamous carcinoma cell line growth inhibition [CLK]
Details: for viability, T/C: stronger effect = lower value
Source text: A high-throughput screen of multi-cell type tumor spheroids was designed to identify active combinations of […] and targeted small molecules. Complex spheroids include a stromal component modeled by human endothelial cells (HUVEC) and fibroblasts modeled by human mesenchymal stem cells (MSCs). The concentration ranges selected for each drug and investigational agent were based upon clinically achievable concentrations if the clinical Cmax of the agent was known.
Compounds. The drugs and investigational agents: cirtuvivint (SM08502; NSC835563), CC-671 (NSC850746), vemurafenib (NSC761431), tapotoclax (NSC804041), sotorasib (NSC818433), adagrasib (NSC831453), MRTX-1133 (NSC836407), BAY2416964 (NSC825713), copanlisib (NSC816437), inavolisib (NSC800729), abemaciclib (NSC768073), osimertinib (NSC779217), entinostat (NSC756642), eltanexor (KPT-8602, NSC794443), venetoclax (NSC766270), ceralasertib (NSC777638), bortezomib (NSC756655), olaparib (NSC753686), talazoparib (NSC767125), alisertib (NSC759677), peposertib (NSC802822), gemcitabine (NSC613327), 5-fluorouracil (NSC19893), SN-38 (NSC673596), oxaliplatin (NSC266046), paclitaxel (NSC125973), and doxorubicin (NSC123127), were obtained from the National Cancer Institute (NCI) Developmental Therapeutics Program Chemical Repository. The FDA-approved anticancer drug set is available from the Developmental Therapeutics Program at https://dtp.cancer.gov/organization/dscb/obtaining/available plates.htm. […] The stock solutions were prepared in dimethyl sulfoxide (DMSO, Sigma-Aldrich, St. Louis, MO, cat. D2650), except for the platinum complexes which were prepared in saline (Quality Biological, Gaithersburg, MD, cat. 114-055-101), at 800-fold the tested concentration and stored at -70 degrees C prior to their use. All drugs and investigational agents were tested over a range starting from a high concentration at or near the clinical Cmax and decreasing in half-log increments. If the clinical Cmax for an agent had not been determined, the highest concentration tested was 10 microM.
Cell Culture. All cells were maintained in an incubator at 37 degrees C and 5% CO2 with 95% humidity. The PDC lines were cultured according to standard operating procedures established by the NCI PDMR. Briefly, all PDCs were thawed and cultured in Matrigel-coated flasks prepared with a working solution of 1X Ham's F-12 nutrient mix, without supplementation (Invitrogen, Waltham, MA, cat. 11765054), 100 U/mL penicillin-streptomycin (Invitrogen, cat. 15140122), and 2.5% Matrigel (Corning Inc., Corning, NY, cat. 354248) for the first three passages. The 947758-054-R-J2-PDC line was cultured in 6B/Colon 1A media, which includes advanced DMEM/F-12 (Thermo Fisher Scientific, cat. 12634028), 10 mM HEPES (Thermo Fisher Scientific, cat. 15630080), 1X GlutaMAX supplement (Thermo Fisher Scientific, cat. 35050061), 0.1 mg/mL primocin (InvivoGen, cat. ant-pm-2), 10% defined fetal bovine serum, heat inactivated (HyClone Laboratories Inc., cat. SH30070.03HI), 1.25 mM N-Acetyl-L-cysteine (Sigma-Aldrich, cat. A9165), 10 mM nicotinamide (Sigma-Aldrich, cat. N0636), 1X B-27 supplement (Thermo Fisher Scientific, cat. 17504044), 1X N-2 supplement (Thermo Fisher Scientific, cat. 17502048), and 10 microM Y-27632 dihydrochloride (Tocris Bioscience, cat. 1254). The 876862-298-R-J1-PDC was cultured in 6E media, which includes all 6B/Colon 1A media components plus 50% L-WRN conditioned media (ATCC, cat. CRL-3276), 50 ng/mL recombinant human EGF recombinant protein (hEGF; Thermo Fisher Scientific, cat. PHG0311), 10 ng/mL recombinant human fibroblast growth factor 10 (hGFG-10; PeproTech, cat. 100-26), 1 ng/mL recombinant human fibroblast growth factor 2 (hFGF-2; PeproTech, cat. 100-18B), and 1 µM prostaglandin E2 (PGE2; Tocris, cat. 2296). The 227483-062-R1-J1-PDC line was cultured in Panc media, containing all 6E components except hFGF-2, with the addition of 500 nM SB-431542 (Selleckchem, cat. S1067) and 10 nM gastrin (Tocris, cat. 3006). […]

[1] = curve of first compound, second compound 0.0316 µM
[2] = curve of first compound, second compound 0.1 µM
[3] = curve of first compound, second compound 0.316 µM
[4] = curve of first compound, second compound 1 µM
[5] = curve of first compound, second compound 3.16 µM
[6] = curve of first compound, second compound 10 µM
[7] = second compound 0.0316 µM, first compound 0.0316 µM
[8] = second compound 0.0316 µM, first compound 0.1 µM
[9] = second compound 0.0316 µM, first compound 0.316 µM
[10] = second compound 0.0316 µM, first compound 1 µM
[11] = second compound 0.0316 µM, first compound 3.16 µM
[12] = second compound 0.0316 µM, first compound 10 µM
[13] = second compound 0.1 µM, first compound 0.0316 µM
[14] = second compound 0.1 µM, first compound 0.1 µM
[15] = second compound 0.1 µM, first compound 0.316 µM
[16] = second compound 0.1 µM, first compound 1 µM
[17] = second compound 0.1 µM, first compound 3.16 µM
[18] = second compound 0.1 µM, first compound 10 µM
[19] = second compound 0.316 µM, first compound 0.0316 µM
[20] = second compound 0.316 µM, first compound 0.1 µM
[21] = second compound 0.316 µM, first compound 0.316 µM
[22] = second compound 0.316 µM, first compound 1 µM
[23] = second compound 0.316 µM, first compound 3.16 µM
[24] = second compound 0.316 µM, first compound 10 µM
[25] = second compound 1 µM, first compound 0.0316 µM
[26] = second compound 1 µM, first compound 0.1 µM
[27] = second compound 1 µM, first compound 0.316 µM
[28] = second compound 1 µM, first compound 1 µM
[29] = second compound 1 µM, first compound 3.16 µM
[30] = second compound 1 µM, first compound 10 µM
[31] = second compound 3.16 µM, first compound 0.0316 µM
[32] = second compound 3.16 µM, first compound 0.1 µM
[33] = second compound 3.16 µM, first compound 0.316 µM
[34] = second compound 3.16 µM, first compound 1 µM
[35] = second compound 3.16 µM, first compound 3.16 µM
[36] = second compound 3.16 µM, first compound 10 µM
[37] = second compound 10 µM, first compound 0.0316 µM
[38] = second compound 10 µM, first compound 0.1 µM
[39] = second compound 10 µM, first compound 0.316 µM
[40] = second compound 10 µM, first compound 1 µM
[41] = second compound 10 µM, first compound 3.16 µM
[42] = second compound 10 µM, first compound 10 µM
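Also: spheroids exposed to the compounds for 7 days.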

C#Cc1c(F)ccc2cc(O)cc(-c3ncc4c(N5CC6CCC(C5)N6)nc(OCC56CCCN5CC(F)C6)nc4c3F)c12 (stereo not drawn) + CNC(=O)c1ccc(Nc2nc(OC3CCCC3)c3c(-c4ccc5nc(C)oc5c4)c[nH]c3n2)c(OC)c1
IC50 [1]: 6560 nM
IC50 [2]: 862 nM
IC50 [3]: 89.5 nM
IC50 [4]: < 31.6 nM
IC50 [5]: < 31.6 nM
IC50 [6]: < 31.6 nM
viability, T/C [7]: 92.7%
viability, T/C [8]: 75.7%
viability, T/C [9]: 80.7%
viability, T/C [10]: 65%
viability, T/C [11]: 54.3%
viability, T/C [12]: 47.1%
viability, T/C [13]: 72.5%
viability, T/C [14]: 84.5%
viability, T/C [15]: 66.5%
viability, T/C [16]: 48.4%
viability, T/C [17]: 51%
viability, T/C [18]: 43.3%
viability, T/C [19]: 58.1%
viability, T/C [20]: 48.5%
viability, T/C [21]: 44.2%
viability, T/C [22]: 43%
viability, T/C [23]: 39.8%
viability, T/C [24]: 39%
viability, T/C [25]: 41.6%
viability, T/C [26]: 39.4%
viability, T/C [27]: 36.5%
viability, T/C [28]: 35.2%
viability, T/C [29]: 35.1%
viability, T/C [30]: 31.6%
viability, T/C [31]: 37.1%
viability, T/C [32]: 37.8%
viability, T/C [33]: 31.1%
viability, T/C [34]: 30%
viability, T/C [35]: 30.5%
viability, T/C [36]: 33.8%
viability, T/C [37]: 35.8%
viability, T/C [38]: 37.4%
viability, T/C [39]: 33.9%
viability, T/C [40]: 32.6%
viability, T/C [41]: 32.4%
viability, T/C [42]: 26.8%

COc1ccc([C@@H](O)c2cc(-c3ncnc4cc(N5CCOCC5)ccc34)c(F)cc2Cl)nn1 + CNC(=O)c1ccc(Nc2nc(OC3CCCC3)c3c(-c4ccc5nc(C)oc5c4)c[nH]c3n2)c(OC)c1
IC50 [1]: 2250 nM
IC50 [2]: 3710 nM
IC50 [3]: 517 nM
IC50 [4]: < 31.6 nM
IC50 [5]: < 31.6 nM
IC50 [6]: < 31.6 nM
viability, T/C [7]: 106%
viability, T/C [8]: 100%
viability, T/C [9]: 101%
viability, T/C [10]: 64.5%
viability, T/C [11]: 47.6%
viability, T/C [12]: 31.7%
viability, T/C [13]: 81.5%
viability, T/C [14]: 89.7%
viability, T/C [15]: 73.7%
viability, T/C [16]: 67.5%
viability, T/C [17]: 52.6%
viability, T/C [18]: 36.9%
viability, T/C [19]: 52.7%
viability, T/C [20]: 60%
viability, T/C [21]: 55.6%
viability, T/C [22]: 40.5%
viability, T/C [23]: 40.3%
viability, T/C [24]: 23.4%
viability, T/C [25]: 43.5%
viability, T/C [26]: 46.5%
viability, T/C [27]: 40%
viability, T/C [28]: 29.7%
viability, T/C [29]: 25.1%
viability, T/C [30]: 23.1%
viability, T/C [31]: 37.6%
viability, T/C [32]: 38.9%
viability, T/C [33]: 45.2%
viability, T/C [34]: 32.9%
viability, T/C [35]: 37%
viability, T/C [36]: 23.5%
viability, T/C [37]: 40.4%
viability, T/C [38]: 38.6%
viability, T/C [39]: 39.2%
viability, T/C [40]: 28.6%
viability, T/C [41]: 32.3%
viability, T/C [42]: 18.6%

C#Cc1c(F)ccc2cc(O)cc(-c3ncc4c(N5CC6CCC(C5)N6)nc(OCC56CCCN5CC(F)C6)nc4c3F)c12 (stereo not drawn)
viability, T/C (compound 0.0316 µM): 87.8% and 104%
viability, T/C (compound 0.1 µM): 90.5% and 95.1%
viability, T/C (compound 0.316 µM): 85.1% and 93.7%
viability, T/C (compound 1 µM): 82.3% and 61%
viability, T/C (compound 3.16 µM): 61.4% and 59%
viability, T/C (compound 10 µM): 49.3% and 46%
IC50 (curve of compound): 9280 nM and > 10000 nM

CC1(C)CCC(CN2CCN(c3ccc(C(=O)NS(=O)(=O)c4ccc(NCC5CCOCC5)c([N+](=O)[O-])c4)c(Oc4cnc5[nH]ccc5c4)c3)CC2)=C(c2ccc(Cl)cc2)C1 + CNC(=O)c1ccc(Nc2nc(OC3CCCC3)c3c(-c4ccc5nc(C)oc5c4)c[nH]c3n2)c(OC)c1
IC50 [1]: 7610 nM
IC50 [2]: 8100 nM
IC50 [3]: 5320 nM
IC50 [4]: 3200 nM
IC50 [5]: < 31.6 nM
IC50 [6]: < 31.6 nM
viability, T/C [7]: 104%
viability, T/C [8]: 103%
viability, T/C [9]: 105%
viability, T/C [10]: 92.7%
viability, T/C [11]: 117%
viability, T/C [12]: 33%
viability, T/C [13]: 95.8%
viability, T/C [14]: 89.4%
viability, T/C [15]: 86.7%
viability, T/C [16]: 84.2%
viability, T/C [17]: 94.6%
viability, T/C [18]: 41.1%
viability, T/C [19]: 56.3%
viability, T/C [20]: 67.9%
viability, T/C [21]: 72.4%
viability, T/C [22]: 62.5%
viability, T/C [23]: 51%
viability, T/C [24]: 44.2%
viability, T/C [25]: 51.8%
viability, T/C [26]: 51.5%
viability, T/C [27]: 50.6%
viability, T/C [28]: 46.1%
viability, T/C [29]: 51.1%
viability, T/C [30]: 34.1%
viability, T/C [31]: 46.2%
viability, T/C [32]: 48.4%
viability, T/C [33]: 39.1%
viability, T/C [34]: 41.6%
viability, T/C [35]: 43.8%
viability, T/C [36]: 39.8%
viability, T/C [37]: 40.5%
viability, T/C [38]: 51%
viability, T/C [39]: 45.6%
viability, T/C [40]: 47.7%
viability, T/C [41]: 57.2%
viability, T/C [42]: 31.8%
